# Source: ChEMBL document CHEMBL1201862, “PubChem BioAssay data set” (2004)
# Calls of active or inactive are those of the source.
# Legend:
# Bcl-2-like protein 1 = Bcl-2-like protein 1 (Homo sapiens, UniProt Q07817); assay: BCL-XL inhibitors, dose response, selectivity assay for MCL1 inhibitor project, biochemical, fluorescence polarization, 1536-well (AID 2218)
# [1] = molecular target: Induced myeloid leukemia cell differentiation protein Mcl-1 (Homo sapiens, UniProt Q07820); assay: MCL1-BIM BH3 interaction inhibitors, dose response, biochemical, fluorescence polarization, BIM-BH3 peptide, 1536-well (AID 2217)
# Chain of Induced myeloid leukemia cell differentiation protein Mcl-1 (Q07820 whole entry): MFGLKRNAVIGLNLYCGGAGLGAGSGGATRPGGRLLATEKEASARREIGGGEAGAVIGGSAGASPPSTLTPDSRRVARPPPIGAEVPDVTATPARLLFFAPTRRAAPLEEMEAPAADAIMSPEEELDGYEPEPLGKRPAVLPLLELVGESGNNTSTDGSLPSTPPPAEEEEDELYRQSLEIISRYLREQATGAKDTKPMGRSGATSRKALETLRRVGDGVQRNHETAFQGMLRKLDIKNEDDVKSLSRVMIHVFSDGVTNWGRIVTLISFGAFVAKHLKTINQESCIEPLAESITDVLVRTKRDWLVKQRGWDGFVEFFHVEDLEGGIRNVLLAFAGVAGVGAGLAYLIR
# Genome polyprotein = Genome polyprotein (Hepatitis C virus, UniProt Q2Q167); assay: HCV core protein dimerization inhibitors, dose response, biochemical, TR-FRET (AID 2159); design: species or system Hepacivirus hominis;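 also: blocks dimerization of HCV core protein measured by TR-FRET between tagged core106 pairs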
# Chain of Genome polyprotein (Q2Q167 whole entry): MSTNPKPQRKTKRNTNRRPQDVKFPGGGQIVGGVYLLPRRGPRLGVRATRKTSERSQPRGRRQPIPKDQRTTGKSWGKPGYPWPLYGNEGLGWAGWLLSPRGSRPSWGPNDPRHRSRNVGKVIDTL
# [2] = cytotoxicity in MIN6 insulinoma cells, dose response, cytotoxicity control, cell-based, mouse insulinoma (AID 2122); assay type: functional;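 also: confirmatory high-throughput counterscreen run to flag cytotoxic compounds; mouse MIN-6 beta cells carrying an insulin promoter eGFP reporter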
# [3] = molecular target: T1, Rac GTPase-activating protein 1 (Homo sapiens, UniProt Q9H0H5); assay: MgcRacGAP GTPase-activating activity inhibitors, confirmation, biochemical, ADP Hunter fluorescence, primary and confirmatory (AID 624330); assay type: functional
# T1 sequence (Q9H0H5 whole entry): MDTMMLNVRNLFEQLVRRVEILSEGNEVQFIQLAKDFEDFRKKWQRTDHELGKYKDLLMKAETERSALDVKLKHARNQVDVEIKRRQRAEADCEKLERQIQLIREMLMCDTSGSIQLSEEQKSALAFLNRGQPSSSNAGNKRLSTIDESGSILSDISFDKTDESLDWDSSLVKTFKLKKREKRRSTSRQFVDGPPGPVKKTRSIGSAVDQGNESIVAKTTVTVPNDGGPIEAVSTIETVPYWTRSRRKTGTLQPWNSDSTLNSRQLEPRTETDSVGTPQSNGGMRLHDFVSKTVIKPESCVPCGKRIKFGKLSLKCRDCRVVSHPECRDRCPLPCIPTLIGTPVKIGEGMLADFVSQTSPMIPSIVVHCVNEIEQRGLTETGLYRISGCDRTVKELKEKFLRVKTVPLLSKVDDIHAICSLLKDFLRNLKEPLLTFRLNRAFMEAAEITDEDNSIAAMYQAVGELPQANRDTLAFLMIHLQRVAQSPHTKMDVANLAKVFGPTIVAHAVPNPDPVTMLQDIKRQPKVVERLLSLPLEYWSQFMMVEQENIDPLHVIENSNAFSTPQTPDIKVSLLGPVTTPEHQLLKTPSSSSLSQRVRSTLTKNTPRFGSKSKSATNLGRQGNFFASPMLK
# NADPH oxidase 1 [4] = molecular target: T2, NADPH oxidase 1 (Homo sapiens, UniProt Q9Y5S8); assay: Luminescence-based cell-based dose response assay to identify inhibitors of NADPH oxidase 1 (NOX1).; assay type: functional
# T2 sequence (Q9Y5S8 whole entry): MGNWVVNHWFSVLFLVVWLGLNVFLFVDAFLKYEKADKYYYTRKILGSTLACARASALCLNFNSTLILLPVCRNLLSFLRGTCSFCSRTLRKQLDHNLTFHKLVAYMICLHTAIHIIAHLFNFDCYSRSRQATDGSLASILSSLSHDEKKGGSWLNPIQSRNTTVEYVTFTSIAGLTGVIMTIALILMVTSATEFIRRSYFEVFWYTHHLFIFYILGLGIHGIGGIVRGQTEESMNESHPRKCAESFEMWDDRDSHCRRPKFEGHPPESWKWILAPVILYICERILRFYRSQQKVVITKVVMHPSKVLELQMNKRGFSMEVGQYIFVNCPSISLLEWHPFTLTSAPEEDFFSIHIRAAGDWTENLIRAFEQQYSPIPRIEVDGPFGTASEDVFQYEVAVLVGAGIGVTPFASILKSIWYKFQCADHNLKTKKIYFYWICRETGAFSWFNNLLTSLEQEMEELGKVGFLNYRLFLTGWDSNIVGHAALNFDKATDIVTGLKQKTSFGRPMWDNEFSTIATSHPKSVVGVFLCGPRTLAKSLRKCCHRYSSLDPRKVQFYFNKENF
# NADPH oxidase 1 [5] = molecular target: T2, NADPH oxidase 1; assay type: functional, cell-based
# [6] = insulin promoter down-regulators in MIN6 cells, imaging, high-content screening, mouse beta cells (AID 1628); assay type: functional
# [7] = molecular target: Sphingosine 1-phosphate receptor 2 (Homo sapiens, UniProt O95136); assay: Dose Response Cell Based Assay for Agonists of the S1P2 Receptor of Purchased Analogues. [Related pubchem assays: 729, 843, 854, 736 ]; assay type: functional
# Chain of Sphingosine 1-phosphate receptor 2 (O95136 whole entry): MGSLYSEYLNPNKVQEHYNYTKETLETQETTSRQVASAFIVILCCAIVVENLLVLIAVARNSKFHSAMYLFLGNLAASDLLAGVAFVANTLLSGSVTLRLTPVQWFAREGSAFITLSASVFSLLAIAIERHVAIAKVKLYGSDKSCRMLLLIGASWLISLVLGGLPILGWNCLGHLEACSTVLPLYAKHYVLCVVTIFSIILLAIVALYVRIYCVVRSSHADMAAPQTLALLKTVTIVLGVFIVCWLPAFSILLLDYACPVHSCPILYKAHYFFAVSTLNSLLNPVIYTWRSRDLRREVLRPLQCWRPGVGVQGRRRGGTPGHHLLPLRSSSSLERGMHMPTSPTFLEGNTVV
# [8] = molecular target: T3, Dual specificity protein phosphatase 6 (Rattus norvegicus, UniProt Q64346); assay type: functional
# T3 sequence (Q64346 whole entry): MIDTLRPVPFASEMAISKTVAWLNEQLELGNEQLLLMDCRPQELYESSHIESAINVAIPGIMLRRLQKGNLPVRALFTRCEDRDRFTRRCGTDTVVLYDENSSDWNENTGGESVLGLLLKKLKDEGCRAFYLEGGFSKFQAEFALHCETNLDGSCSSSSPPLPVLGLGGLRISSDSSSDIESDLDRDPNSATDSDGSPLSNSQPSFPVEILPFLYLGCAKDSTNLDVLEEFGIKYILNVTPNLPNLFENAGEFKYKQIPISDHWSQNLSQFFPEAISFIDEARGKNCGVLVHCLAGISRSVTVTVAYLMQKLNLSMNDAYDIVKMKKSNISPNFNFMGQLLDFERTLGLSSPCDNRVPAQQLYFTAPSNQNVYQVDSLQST
# [9] = molecular target: Glyceraldehyde-3-phosphate dehydrogenase (Homo sapiens, UniProt P04406)
# Chain of Glyceraldehyde-3-phosphate dehydrogenase (P04406 whole entry): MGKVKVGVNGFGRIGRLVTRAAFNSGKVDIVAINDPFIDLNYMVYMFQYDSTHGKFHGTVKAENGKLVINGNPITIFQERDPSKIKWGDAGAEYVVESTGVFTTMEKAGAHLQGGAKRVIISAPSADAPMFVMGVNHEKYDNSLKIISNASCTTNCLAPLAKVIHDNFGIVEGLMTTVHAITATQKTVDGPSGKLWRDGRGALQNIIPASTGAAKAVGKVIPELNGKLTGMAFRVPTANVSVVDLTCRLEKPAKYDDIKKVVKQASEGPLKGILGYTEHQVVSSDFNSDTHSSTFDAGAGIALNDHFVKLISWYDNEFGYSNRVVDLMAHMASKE
# [10] = molecular target: T4, Tyrosine-protein phosphatase non-receptor type 7 (Homo sapiens, UniProt P35236); assay type: functional
# T4 sequence (P35236 whole entry): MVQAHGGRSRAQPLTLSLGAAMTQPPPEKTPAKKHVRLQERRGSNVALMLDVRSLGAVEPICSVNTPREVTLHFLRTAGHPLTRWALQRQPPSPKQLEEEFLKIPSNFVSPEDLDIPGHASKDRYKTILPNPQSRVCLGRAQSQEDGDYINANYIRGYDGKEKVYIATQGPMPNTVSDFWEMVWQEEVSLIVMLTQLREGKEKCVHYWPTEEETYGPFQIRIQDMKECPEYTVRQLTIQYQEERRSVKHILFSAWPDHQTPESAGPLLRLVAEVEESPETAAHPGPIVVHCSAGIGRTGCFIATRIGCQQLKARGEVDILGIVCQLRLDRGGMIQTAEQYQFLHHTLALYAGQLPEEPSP
# [11] = molecular target: Heat shock 70 kDa protein 1A (Homo sapiens, UniProt P0DMV8); assay: Hsp70 inhibitors, SAR follow-up, biochemical, fluorescence polarization (AID 1072)
# Chain of Heat shock 70 kDa protein 1A (P0DMV8 whole entry): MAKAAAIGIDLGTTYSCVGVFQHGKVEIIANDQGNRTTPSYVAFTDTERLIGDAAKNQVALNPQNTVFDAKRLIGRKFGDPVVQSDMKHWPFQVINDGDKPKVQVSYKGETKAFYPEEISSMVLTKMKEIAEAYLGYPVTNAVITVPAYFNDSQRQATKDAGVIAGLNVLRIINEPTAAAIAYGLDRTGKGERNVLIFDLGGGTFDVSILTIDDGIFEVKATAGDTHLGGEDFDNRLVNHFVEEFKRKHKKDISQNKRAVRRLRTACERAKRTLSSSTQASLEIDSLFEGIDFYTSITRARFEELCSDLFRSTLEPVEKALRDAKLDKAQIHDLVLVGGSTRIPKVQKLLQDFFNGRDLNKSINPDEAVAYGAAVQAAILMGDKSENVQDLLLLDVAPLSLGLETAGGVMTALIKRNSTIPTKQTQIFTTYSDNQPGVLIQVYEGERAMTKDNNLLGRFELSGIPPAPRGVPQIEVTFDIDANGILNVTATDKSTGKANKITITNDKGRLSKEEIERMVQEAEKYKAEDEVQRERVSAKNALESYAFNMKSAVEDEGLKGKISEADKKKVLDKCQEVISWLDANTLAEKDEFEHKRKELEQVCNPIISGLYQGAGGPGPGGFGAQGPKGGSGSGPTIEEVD
# [12] = molecular target: Heat shock cognate 71 kDa protein (Homo sapiens, UniProt P11142); assay: In Vitro Hsc70 Dose Response Fluorescence Polarization Assay. [Related pubchem assays: 1072 ]
# Chain of Heat shock cognate 71 kDa protein (P11142 whole entry): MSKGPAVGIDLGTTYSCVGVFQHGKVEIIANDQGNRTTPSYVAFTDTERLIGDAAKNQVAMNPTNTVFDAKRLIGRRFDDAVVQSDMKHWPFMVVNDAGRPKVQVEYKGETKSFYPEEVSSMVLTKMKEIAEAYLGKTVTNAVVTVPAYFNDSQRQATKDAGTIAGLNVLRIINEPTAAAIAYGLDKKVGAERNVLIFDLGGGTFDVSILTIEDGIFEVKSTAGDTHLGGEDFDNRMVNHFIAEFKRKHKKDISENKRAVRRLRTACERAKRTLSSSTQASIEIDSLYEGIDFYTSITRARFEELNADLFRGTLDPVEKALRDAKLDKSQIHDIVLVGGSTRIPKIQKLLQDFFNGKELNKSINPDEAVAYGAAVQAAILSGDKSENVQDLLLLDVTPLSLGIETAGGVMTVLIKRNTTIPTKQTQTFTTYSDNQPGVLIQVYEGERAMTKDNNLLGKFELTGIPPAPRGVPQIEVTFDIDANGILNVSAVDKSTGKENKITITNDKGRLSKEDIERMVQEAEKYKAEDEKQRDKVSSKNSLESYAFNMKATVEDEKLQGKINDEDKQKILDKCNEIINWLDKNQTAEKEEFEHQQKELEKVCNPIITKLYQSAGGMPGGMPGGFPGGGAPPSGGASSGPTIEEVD
# [13] = molecular target: T3, Dual specificity protein phosphatase 6
# HeLa = assay: Cytotoxicity counterscreen assay for transcriptional activators of heat shock protein 70 (Hsp70). [Related pubchem assays: 1203, 1252 ]; assay type: functional; conditions: Homo sapiens;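 also: cells exposed to compound for 16 hours before readout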
# [14] = molecular target: T5, Zinc finger protein mex-5 (Caenorhabditis elegans, UniProt Q9XUB2); assay: MEX-5/TCR-2 RNA interaction inhibitors, dose response, biochemical, C. elegans, fluorescence polarization (AID 1960)
# T5 sequence (Q9XUB2 whole entry): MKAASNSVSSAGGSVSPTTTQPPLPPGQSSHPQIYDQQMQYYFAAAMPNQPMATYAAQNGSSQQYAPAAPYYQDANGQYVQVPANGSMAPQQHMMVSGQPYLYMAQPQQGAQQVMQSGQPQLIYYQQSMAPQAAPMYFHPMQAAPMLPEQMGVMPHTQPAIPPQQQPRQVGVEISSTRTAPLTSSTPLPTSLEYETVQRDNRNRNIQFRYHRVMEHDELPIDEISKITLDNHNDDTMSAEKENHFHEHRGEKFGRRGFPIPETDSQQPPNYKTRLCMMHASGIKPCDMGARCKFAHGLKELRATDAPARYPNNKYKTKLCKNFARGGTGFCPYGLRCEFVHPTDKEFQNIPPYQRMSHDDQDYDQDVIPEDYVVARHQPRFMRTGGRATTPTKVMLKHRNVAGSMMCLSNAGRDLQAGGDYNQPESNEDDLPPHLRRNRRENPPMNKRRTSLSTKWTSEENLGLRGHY
# [15] = molecular target: T6, RNA-binding protein pos-1 (Caenorhabditis elegans, UniProt G5EF15); assay: inhibitors of POS-1/mex-3 RNA binding, dose response, biochemical, fluorescence polarization (AID 1964);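 also: purified POS-1 fused to maltose binding protein made in E. coli; potency of compounds blocking POS-1 binding to fluorescent RNA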
# T6 sequence (G5EF15 whole entry): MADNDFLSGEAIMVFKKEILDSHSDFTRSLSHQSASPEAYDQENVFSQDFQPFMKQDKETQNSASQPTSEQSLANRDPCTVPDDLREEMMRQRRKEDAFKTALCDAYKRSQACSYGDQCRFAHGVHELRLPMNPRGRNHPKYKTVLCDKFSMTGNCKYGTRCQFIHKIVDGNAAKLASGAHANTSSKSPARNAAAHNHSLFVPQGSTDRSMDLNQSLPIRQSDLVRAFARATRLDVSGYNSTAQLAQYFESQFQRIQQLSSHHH
# Procathepsin L = Procathepsin L (Homo sapiens, UniProt P07711); assay: cathepsin L inhibitors, dose response, counter-screen for M1/M17 aminopeptidase inhibitor project, biochemical, QFRET, 1536-well (AID 2214)
# Chain of Procathepsin L (P07711 whole entry): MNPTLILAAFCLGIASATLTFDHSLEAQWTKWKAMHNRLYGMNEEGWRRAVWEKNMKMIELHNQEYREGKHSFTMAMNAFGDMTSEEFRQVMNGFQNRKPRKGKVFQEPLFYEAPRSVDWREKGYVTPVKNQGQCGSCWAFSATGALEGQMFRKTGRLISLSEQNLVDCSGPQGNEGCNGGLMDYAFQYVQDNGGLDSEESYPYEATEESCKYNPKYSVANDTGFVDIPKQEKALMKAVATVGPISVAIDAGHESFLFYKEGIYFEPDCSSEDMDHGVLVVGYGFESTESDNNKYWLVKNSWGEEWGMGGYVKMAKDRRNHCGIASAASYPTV
# Aminopeptidase N = molecular target: T7, Aminopeptidase N (Plasmodium falciparum FcB1/Columbia, UniProt O96935); assay: P. falciparum M1AAP inhibitors, biochemical, fluorogenic H-Leu-NHMec substrate, 1536-well (AID 1445); design: species or system Plasmodium falciparum 3D7, 3D7
# T7 sequence (O96935 whole entry): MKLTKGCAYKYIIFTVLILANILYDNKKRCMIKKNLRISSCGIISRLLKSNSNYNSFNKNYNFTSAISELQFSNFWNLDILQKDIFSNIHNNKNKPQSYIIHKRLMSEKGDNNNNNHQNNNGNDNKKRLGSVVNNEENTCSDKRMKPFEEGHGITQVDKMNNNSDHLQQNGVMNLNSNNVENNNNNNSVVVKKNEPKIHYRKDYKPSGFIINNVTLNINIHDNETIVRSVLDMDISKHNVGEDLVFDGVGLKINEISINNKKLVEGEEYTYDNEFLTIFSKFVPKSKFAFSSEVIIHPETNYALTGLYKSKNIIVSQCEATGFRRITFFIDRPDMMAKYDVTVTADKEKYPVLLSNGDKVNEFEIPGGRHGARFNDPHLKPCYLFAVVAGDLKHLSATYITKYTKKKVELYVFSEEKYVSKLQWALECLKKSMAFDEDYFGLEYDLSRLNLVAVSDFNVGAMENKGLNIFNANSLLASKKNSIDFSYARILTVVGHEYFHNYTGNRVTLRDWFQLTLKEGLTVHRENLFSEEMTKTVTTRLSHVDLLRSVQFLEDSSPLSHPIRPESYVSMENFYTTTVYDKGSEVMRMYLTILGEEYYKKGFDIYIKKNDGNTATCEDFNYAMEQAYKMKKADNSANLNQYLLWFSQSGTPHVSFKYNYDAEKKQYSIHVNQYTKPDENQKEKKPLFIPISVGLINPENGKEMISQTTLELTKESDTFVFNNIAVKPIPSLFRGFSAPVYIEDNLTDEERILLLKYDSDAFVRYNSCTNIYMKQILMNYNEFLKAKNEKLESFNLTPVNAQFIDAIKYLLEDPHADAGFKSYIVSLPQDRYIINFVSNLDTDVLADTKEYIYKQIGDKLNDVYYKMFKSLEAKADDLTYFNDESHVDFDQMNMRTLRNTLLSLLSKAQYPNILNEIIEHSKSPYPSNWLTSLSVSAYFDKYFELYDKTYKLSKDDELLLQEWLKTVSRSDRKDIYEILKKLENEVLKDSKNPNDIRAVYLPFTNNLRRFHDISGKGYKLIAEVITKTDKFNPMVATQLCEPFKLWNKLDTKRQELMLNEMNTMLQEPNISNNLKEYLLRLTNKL
# Aspartyl aminopeptidase = Aspartyl aminopeptidase (Plasmodium falciparum 3D7, UniProt Q8I2J3); assay: Counterscreen for inhibitors of M1 and M17 aminopeptidases: QFRET-based biochemical high throughput dose response assay for inhibitors of the Plasmodium falciparum M18 Aspartyl Aminopeptidase (PFM18AAP). [Related PubChem assays: 1619 (Screening assay (M17LAP inhibitors).), 1445 (Screening assay (M1AAP inhibitors).)]
# Chain of Aspartyl aminopeptidase (Q8I2J3 whole entry): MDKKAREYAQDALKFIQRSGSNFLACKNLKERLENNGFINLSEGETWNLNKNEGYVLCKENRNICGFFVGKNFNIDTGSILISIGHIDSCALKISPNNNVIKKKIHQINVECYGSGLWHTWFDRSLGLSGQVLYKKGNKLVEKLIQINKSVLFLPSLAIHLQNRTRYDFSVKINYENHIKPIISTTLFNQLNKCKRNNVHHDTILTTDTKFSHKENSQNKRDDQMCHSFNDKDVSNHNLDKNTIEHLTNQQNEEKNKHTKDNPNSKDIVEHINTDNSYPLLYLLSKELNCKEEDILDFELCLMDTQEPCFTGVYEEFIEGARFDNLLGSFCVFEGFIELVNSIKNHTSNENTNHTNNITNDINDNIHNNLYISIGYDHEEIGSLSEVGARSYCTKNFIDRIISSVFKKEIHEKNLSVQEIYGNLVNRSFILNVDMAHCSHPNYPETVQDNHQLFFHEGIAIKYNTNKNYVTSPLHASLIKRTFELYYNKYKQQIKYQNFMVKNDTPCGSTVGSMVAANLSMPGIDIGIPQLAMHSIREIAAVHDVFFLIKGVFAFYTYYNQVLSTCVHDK
# Mucolipin-3 = Mucolipin-3 (Homo sapiens, UniProt Q8TDD5); assay: Dose response cell-based high-throughput screening assay for agonists of the transient receptor potential channel ML3 (TRPML3). [Related pubchem assays: 1526, 1424, 1448 ]; assay type: functional
# H9c2 = assay: cells; assay type: functional, cell-based; conditions: Rattus norvegicus, H9c2, Myocardium;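 also: confirmatory concentration-response retest of ultra-high-throughput screening hits for modulation of myocardial damage; cell death induced by hydrogen peroxide oxidative stress; compound pretreatment for 60 min then peroxide exposure for 2 h; potency is for protecting the cells against peroxide damage rather than for killing them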
# Ion channel NompC = Ion channel NompC (Danio rerio, UniProt Q7T1G6); assay: Fluorescence counterscreen assay for TRPML3 agonists: dose response cell-based high-throughput screening assay to identify agonists of the transient receptor potential channel N1 (TRPN1). [Related pubchem assays: 1526, 1424, 1448 ]; assay type: functional
# Chain of Ion channel NompC (Q7T1G6 whole entry): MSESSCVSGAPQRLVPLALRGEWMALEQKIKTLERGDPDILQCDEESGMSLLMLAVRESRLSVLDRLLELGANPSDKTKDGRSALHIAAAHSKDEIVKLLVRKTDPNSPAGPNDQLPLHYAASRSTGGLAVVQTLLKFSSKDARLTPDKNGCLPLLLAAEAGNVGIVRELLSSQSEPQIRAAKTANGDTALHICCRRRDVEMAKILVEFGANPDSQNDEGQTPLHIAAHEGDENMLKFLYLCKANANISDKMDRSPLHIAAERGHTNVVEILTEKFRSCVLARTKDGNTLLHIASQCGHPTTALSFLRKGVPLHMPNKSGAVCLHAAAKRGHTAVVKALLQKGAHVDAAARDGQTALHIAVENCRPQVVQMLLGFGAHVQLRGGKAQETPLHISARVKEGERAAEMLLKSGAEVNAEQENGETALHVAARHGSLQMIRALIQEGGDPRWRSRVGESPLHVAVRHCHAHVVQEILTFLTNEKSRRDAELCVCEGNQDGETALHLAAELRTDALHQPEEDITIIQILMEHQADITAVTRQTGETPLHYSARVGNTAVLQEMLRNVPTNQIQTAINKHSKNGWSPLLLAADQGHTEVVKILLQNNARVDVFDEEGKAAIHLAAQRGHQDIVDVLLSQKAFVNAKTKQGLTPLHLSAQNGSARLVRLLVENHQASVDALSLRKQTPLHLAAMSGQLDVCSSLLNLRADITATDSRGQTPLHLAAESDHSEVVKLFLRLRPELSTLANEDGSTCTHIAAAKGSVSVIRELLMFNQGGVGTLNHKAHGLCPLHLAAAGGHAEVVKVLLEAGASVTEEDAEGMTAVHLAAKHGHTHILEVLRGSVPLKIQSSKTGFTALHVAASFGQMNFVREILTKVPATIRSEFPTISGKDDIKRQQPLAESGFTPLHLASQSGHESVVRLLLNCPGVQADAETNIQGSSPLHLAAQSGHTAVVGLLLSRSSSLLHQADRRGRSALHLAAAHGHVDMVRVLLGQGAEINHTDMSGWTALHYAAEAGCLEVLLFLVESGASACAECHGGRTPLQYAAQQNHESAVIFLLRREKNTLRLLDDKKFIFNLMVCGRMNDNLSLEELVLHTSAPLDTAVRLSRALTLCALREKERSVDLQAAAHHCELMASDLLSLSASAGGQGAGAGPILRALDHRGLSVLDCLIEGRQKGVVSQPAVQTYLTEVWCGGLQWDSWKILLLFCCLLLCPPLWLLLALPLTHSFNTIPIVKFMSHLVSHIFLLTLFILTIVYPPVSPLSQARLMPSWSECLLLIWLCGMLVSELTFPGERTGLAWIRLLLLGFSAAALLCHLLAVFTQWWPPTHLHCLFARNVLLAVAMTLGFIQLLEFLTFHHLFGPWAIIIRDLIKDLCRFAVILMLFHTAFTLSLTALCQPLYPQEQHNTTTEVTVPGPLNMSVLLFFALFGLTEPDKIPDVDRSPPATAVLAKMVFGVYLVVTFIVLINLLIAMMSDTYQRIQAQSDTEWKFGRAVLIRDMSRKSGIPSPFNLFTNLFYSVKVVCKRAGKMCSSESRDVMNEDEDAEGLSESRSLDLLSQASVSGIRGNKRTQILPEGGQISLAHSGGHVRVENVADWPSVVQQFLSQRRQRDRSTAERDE
compound,measurement,setting,value
COc1ccc(NC(=O)CN(C)C(=O)c2cc3c(s2)CCC3)cc1,IC50,Bcl-2-like protein 1,> 109 µM (not active)
same,IC50,[1],7.31 µM (active)
same,IC50,Genome polyprotein,42.6 µM (not active)
COc1ccc2c(c1)Sc1ccccc1N2,IC50,[2],1.63 µM (active)
same,IC50,[3],28.8 µM (active)
same,IC50,NADPH oxidase 1 [4],> 20 µM (not active)
same,IC50,NADPH oxidase 1 [5],0.935 µM (active)
same,IC50,[6],2.01 µM (active)
COc1ccc(NC(=O)CN(C)CC(=O)c2cc(C)n(Cc3ccccc3)c2C)cc1,EC50,[7],> 30 µM (not active)
O=C(O)C1Nc2c(I)cccc2C2C=CCC12 (centres undefined),IC50,[8],> 100 µM (inactive)
same,IC50,[9],47.8 µM (active)
same,IC50,[10],71.4 µM (active)
same,IC50,[11],3.13 µM (active)
same,IC50,[12],14.1 µM (active)
same,IC50,[13],> 100 µM (inactive)
COc1ccc(C(CNC(=O)c2cc3ccccc3o2)N2CCCCC2)cc1 (centres undefined),CC50,HeLa,> 99 µM (not active)
O=C(NCc1cccs1)C1CCN(S(=O)(=O)c2ccc(Br)s2)CC1,EC50,[14],> 300 µM (not active)
same,EC50,[15],> 300 µM (not active)
same,IC50,Procathepsin L,> 59.6 µM (not active)
same,IC50,Aminopeptidase N,4.67 µM (active)
same,IC50,Aspartyl aminopeptidase,> 73.5 µM (not active)
CSc1nsc(SC)c1C(=O)N1CCN(S(=O)(=O)c2ccc(C)cc2)C1C(C)C (centres undefined),EC50,Mucolipin-3,10.5 µM (not active)
same,IC50,H9c2,> 79 µM (inactive)
same,EC50,Ion channel NompC,> 29.9 µM (not active)
